Reference: patent US20260022096A1, “NOVEL SULFONAMIDES AND THEIR USE AS NEUROPROTECTIVE AND/OR NEURORESTORATIVE AGENTS” (GENECODE, priority 2022, published 2026)

Target: T1, GFRα1-RET (Homo sapiens, UniProt P56159)
T1 construct: expressed in transfected cells; host or cells: MG87 murine fibroblasts, stably transfected
T1 sequence (P56159 25-429 limits assumed): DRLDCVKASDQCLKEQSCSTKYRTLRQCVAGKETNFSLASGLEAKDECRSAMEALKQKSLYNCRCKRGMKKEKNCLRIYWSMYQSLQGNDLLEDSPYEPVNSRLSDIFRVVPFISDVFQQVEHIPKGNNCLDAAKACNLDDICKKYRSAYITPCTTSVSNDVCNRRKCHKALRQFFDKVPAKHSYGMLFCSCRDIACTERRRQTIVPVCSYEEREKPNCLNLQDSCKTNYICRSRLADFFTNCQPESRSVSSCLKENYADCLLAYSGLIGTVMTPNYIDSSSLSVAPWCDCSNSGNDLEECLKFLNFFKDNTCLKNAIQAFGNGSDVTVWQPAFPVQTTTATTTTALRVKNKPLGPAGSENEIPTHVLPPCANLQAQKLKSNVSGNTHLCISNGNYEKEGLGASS
Experiment: Elk1 reporter-gene (luciferase) assay in cells expressing GFRα1-RET
Assay type: cell-based
Settings: MG87 murine fibroblasts stably transfected with PathDetect Elk-1, GFRα1 and RET, 6 concentrations, agonist/activator activity
Experimental: For ECso determination, a dose-response test was performed using 6 concentrations of each tested compound. Dose-response curves were fitted using the sigmoidal dose-response (variable slope) analysis in GraphPad Prism program (Graph Pad Inc) and ECso of agonist/activator activity was calculated. Dose-response experiments were all performed in duplicate, two times independently.

With COc1ccc(S(=O)(=O)N2CCC(CCc3ccccc3)CC2)cc1N1[C@@H]2CC[C@H]1CN(C(=O)c1cc(F)c(F)cc1Cl)C2 [compound 050, (2-chloro-4,5-difluoro-phenyl)-[(1S,5R)-8-[2-methoxy-5-[[4-(2-phenylethyl)-1-piperidyl]sulfonyl]phenyl]-3,8-diazabicyclo[3.2.1]octan-3-yl]methanone] the EC50 was < 1000 nM.

COc1ccc(S(=O)(=O)N2CCN(c3ccccc3)CC2)cc1N1[C@@H]2CC[C@H]1CN(C(=O)c1cc(F)c(F)cc1Cl)C2 [compound 051] was tested, and the EC50 was < 1000 nM.

With COc1ccc(S(=O)(=O)N2CCC(=Cc3ccccc3)CC2)cc1N1[C@@H]2CC[C@H]1CN(C(=O)c1cc(F)c(F)cc1Cl)C2 [compound 053, [(1S,5R)-8-[5-[(4-benzylidene-1-piperidyl)sulfonyl]-2-methoxy-phenyl]-3,8-diazabicyclo[3.2.1]octan-3-yl]-(2-chloro-4,5-difluoro-phenyl)methanone] the EC50 was < 1000 nM.

COc1ccc(S(=O)(=O)N(C)C(C)(C)C)cc1N1[C@@H]2CC[C@H]1CN(C(=O)c1cc(F)c(F)cc1Cl)C2 [compound 054, N-tert-butyl-3-[(1S,5R)-3-(2-chloro-4,5-difluoro-benzoyl)-3,8-diazabicyclo[3.2.1]octan-8-yl]-4-methoxy-N-methyl-benzenesulfonamide] was tested, and the EC50 was 1000 to 10000 nM.

For O=C(c1ccc(F)cc1Cl)N1C[C@H]2CC[C@@H](C1)N2c1cc(S(=O)(=O)N2CCC(c3ccccc3)CC2)cc2c1OCC2 [compound 055, (2-chloro-4-fluoro-phenyl)-[(1S,5R)-8-[5-[(4-phenyl-1-piperidyl)sulfonyl]-2,3-dihydrobenzofuran-7-yl]-3,8-diazabicyclo[3.2.1]octan-3-yl]methanone], the EC50 was < 1000 nM.

With O=C(c1ccc(F)cc1Cl)N1C[C@H]2CC[C@@H](C1)N2c1cc(S(=O)(=O)N2CCC(c3ccc(F)cc3)CC2)cc2c1OCC2 [compound 056, (2-chloro-4-fluoro-phenyl)-[(1S,5R)-8-[5-[[4-(4-fluorophenyl)-1-piperidyl]sulfonyl]-2,3-dihydrobenzofuran-7-yl]-3,8-diazabicyclo[3.2.1]octan-3-yl]methanone] the EC50 was < 1000 nM.

CC(C)(C)NS(=O)(=O)c1cc2c(c(N3[C@@H]4CC[C@H]3CN(C(=O)c3ccc(F)cc3Cl)C4)c1)OCC2 [compound 057, N-tert-butyl-7-[(1S,5R)-3-(2-chloro-4-fluoro-benzoyl)-3,8-diazabicyclo[3.2.1]octan-8-yl]-2,3-dihydrobenzofuran-5-sulfonamide] was tested, and the EC50 was < 1000 nM.

CN(CC1CC1)S(=O)(=O)c1cc2c(c(N3[C@@H]4CC[C@H]3CN(C(=O)c3ccc(F)cc3Cl)C4)c1)OCC2 [compound 058, 7-[(1S,5R)-3-(2-chloro-4-fluoro-benzoyl)-3,8-diazabicyclo[3.2.1]octan-8-yl]-N-(cyclopropylmethyl)-N-methyl-2,3-dihydrobenzofuran-5-sulfonamide] showed an EC50 of 1000 to 10000 nM.

With O=C(c1ccc(F)cc1Cl)N1C[C@H]2CC[C@@H](C1)N2c1cc(S(=O)(=O)N2CCN(CCc3ccc(F)cc3)CC2)cc2c1OCC2 [compound 059, (2-chloro-4-fluoro-phenyl)-[(1S,5R)-8-[5-[4-[2-(4-fluorophenyl)ethyl]piperazin-1-yl]sulfonyl-2,3-dihydrobenzofuran-7-yl]-3,8-diazabicyclo[3.2.1]octan-3-yl]methanone] the EC50 was < 1000 nM.

In the case of O=C(c1ccc(F)cc1Cl)N1C[C@H]2CC[C@@H](C1)N2c1cc(S(=O)(=O)N2CCN(CCc3ccc(Cl)cc3)CC2)cc2c1OCC2 [compound 060, (2-chloro-4-fluoro-phenyl)-[(1S,5R)-8-[5-[4-[2-(4-chlorophenyl)ethyl]piperazin-1-yl]sulfonyl-2,3-dihydrobenzofuran-7-yl]-3,8-diazabicyclo[3.2.1]octan-3-yl]methanone], the EC50 is reported as < 1000 nM.

With O=C(c1cc(F)c(F)cc1Cl)N1C[C@H]2CC[C@@H](C1)N2c1cc(S(=O)(=O)N2CCC(c3ccccc3)CC2)cc2c1OCC2 [compound 061, (2-chloro-4,5-difluoro-phenyl)-[(1S,5R)-8-[5-[(4-phenyl-1-piperidyl)sulfonyl]-2,3-dihydrobenzofuran-7-yl]-3,8-diazabicyclo[3.2.1]octan-3-yl]methanone] the EC50 was < 1000 nM.
